From patent publication US12466816B2, “Fused cyclic compound capable of degrading protein and use thereof” (Medshine Discovery Inc., priority 2019, dated 2025)

Key:
[1] = molecular target: T1, Wee1 (Homo sapiens, UniProt P30291); assay: Detection of protein degradation by the drug (Western blot); type: cell-based; design: endogenous in cells; host or cells: MOLT-4, U87-MG; conditions: 6 hours
Protocol: Cells were seeded in 6-well plates at a density of about 70%, and the compound WX106 of different concentrations (concentrations shown in the accompanying drawings) were added for 6 hours of treatment, and then the whole-cell lysates were collected for target protein detection. The antibody used was: (Wee1 (D10D2) Rabbit mAb, Cell Signaling, 13084S). To investigate whether drug-induced protein degradation occurs via the ubiquitin pathway, MG132 was used to block ubiquitin-mediated protein degradation. This method was also applied to 293T, MOLT-4, U87-MG, HCT116, and LN-229.
FIG. 13 and FIG. 14 show the effect of WX106 on Wee1 protein expression in MOLT-4 cells.

[2] = molecular target: CRBN (Homo sapiens, UniProt Q96SW2); assay: Thermal displacement experiment (CRBN thermal stability, Western blot); type: binding; design: endogenous in cells; conditions: 100 μM, 293T cell lysates, 56° C. and 59° C.
Protocol: The experiment utilizes the principle that the binding of small molecular compounds to proteins can improve the thermal stability of proteins. 3×10^7 cells were collected and washed twice with phosphate buffered saline (PBS). 100×protease inhibitor cocktail (APEXBIO, K1007) was added to pre-cooled PBS to suspend the cells, and 500 μL of cell suspension was aliquoted into each 1.5 EP tube. The EP tube was placed in liquid nitrogen for quick freezing for 5 min and then transferred to a 26° C. water bath quickly; thereafter, the EP tube was transferred to a 4° C. environment when the liquid is half thawed, until it is completely thawed. This freeze-thaw procedure was performed thrice to allow complete protein precipitation from the cells. The frozen-thawed product was centrifuged at 4° C. for 20 min, the supernatant was aspirated and mixed, and then aliquoted into 1.5 mL EP tubes, and DMSO and WX106 were added respectively to adjust the concentration of WX106 in the solution to 100 μM. […] After the heat shock at all temperatures, the DMSO- and WX106-treated samples at each temperature were collected respectively, centrifuged at 4° C. for 20 min, and the concentration of BCA protein (Thermo) was quantified; at the same time, Western blot was performed to detect the changes of CRBN (Anti-CRBN antibody, Sigma Company, HPA045910) protein content. […]

[3] = molecular target: T2, Wee1-CRBN complex (Homo sapiens, UniProt P30291+Q96SW2); assay: Co-immunoprecipitation; type: cell-based; conditions: 293T cells
T2 construct: expressed in transfected cells; host or cells: 293T
Protocol: The plasmid was transfected into 293T cells. After 24 hours, the compound WX106 was added to treat the cells for a certain period of time. The cells were lysed with NETN lysis buffer (150 mM NaCl, 50 mM Tris-HCl of pH 8.0, 1% NP40), followed by incubation with agarose beads (EZview™ Red anti-HA affinity gel, Sigma, E6779; anti-FLAG® M2 affinity gel, Sigma, A2220) and lysis buffer for 2 hours. The beads were washed 4 times with lysis buffer, loading buffer (100 mM Tris-HCl, 4% SDS, 0.05% BPB, 2% β-mercaptoethanol, 20% glycerol) was added and detection was performed using Western blot.
According to FIG. 24, HA CRBN (CRBN was overexpressed in cells by transfection technology; HA is a polypeptide and CRBN fusion expression; CRBN refers to endogenous CRBN in cells) and FLAG Wee1 (Wee1 was overexpressed in cells by transfection technology; FLAG is a polypeptide and CRBN fusion expression; Wee1 refers to endogenous Wee1 in cells) were overexpressed in 293T cells [and left to stand] for 24 hours after transfection; thereafter, the cells were treated with 20 μM MG132 or 10 μM WX106 1 h and 2 h before they were harvested for Co-IP (co-immunoprecipitation) assay, respectively. […] According to FIG. 26, overexpressed CRBN and endogenous Wee1 were used for co-immunoprecipitation. […] According to FIG. 27, different Wee1 fragments were cloned separately and subjected to Co-IP with CRBN.

[4] = molecular target: T1, Wee1; assay: CRBN-dependent ubiquitin-mediated degradation of Wee1 (wild-type versus CRBN KO cells, Western blot); type: cell-based; design: endogenous in cells; host or cells: U87-MG
Protocol: 293T cells and 293T CRBN KO cells were treated with DMSO, 1 μM WX106, 10 μM WX106 alone or in combination with 10 μM MG132 for 16 h, the whole-cell lysates were collected, and Wee1 protein expression was detected using Western blot. […] U87-MG cells and U87-MG CRBN KO cells were treated with 10 μM WX106 or WX106 plus 10 μM MG132 for 16 h, and the level of Wee1 protein expression was detected using Western blot.

[5] = molecular target: T3, GSPT1 (Homo sapiens, UniProt P15170); assay: Detection of protein degradation by the drug (Western blot); type: cell-based; conditions: MOLT-4 cells
T3 construct: endogenous in cells; host or cells: MOLT-4
T3 sequence (P15170 whole entry): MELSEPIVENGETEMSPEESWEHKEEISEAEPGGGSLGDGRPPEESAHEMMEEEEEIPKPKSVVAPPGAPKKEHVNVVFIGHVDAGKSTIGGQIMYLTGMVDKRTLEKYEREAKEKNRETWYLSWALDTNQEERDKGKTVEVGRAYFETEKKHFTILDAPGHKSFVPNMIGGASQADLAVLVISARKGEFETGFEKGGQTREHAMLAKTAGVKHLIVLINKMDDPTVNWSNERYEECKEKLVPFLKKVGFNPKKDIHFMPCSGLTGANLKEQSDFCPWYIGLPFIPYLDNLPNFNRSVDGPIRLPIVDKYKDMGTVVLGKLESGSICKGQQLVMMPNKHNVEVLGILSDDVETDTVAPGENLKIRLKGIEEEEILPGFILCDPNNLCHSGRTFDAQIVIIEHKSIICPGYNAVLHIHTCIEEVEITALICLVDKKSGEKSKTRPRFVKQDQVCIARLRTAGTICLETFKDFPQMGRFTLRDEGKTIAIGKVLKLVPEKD

T1 sequence (P30291 whole entry): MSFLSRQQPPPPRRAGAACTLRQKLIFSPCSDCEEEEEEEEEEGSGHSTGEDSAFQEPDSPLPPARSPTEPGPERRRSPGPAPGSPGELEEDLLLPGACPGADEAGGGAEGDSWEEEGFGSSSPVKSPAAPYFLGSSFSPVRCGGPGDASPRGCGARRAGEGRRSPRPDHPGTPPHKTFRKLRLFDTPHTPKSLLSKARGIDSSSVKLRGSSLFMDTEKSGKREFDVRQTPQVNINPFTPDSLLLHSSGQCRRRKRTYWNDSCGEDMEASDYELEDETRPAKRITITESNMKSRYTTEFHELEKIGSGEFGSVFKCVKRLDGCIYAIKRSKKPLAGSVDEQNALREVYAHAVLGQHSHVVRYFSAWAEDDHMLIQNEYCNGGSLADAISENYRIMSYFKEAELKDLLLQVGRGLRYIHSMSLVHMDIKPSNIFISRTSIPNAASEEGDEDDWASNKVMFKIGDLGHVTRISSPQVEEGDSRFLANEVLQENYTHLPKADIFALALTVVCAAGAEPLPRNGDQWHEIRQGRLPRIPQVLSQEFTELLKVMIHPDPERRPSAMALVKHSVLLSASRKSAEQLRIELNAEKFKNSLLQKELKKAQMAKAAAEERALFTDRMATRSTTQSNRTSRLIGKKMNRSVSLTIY
T2 sequence (Q96SW2 whole entry): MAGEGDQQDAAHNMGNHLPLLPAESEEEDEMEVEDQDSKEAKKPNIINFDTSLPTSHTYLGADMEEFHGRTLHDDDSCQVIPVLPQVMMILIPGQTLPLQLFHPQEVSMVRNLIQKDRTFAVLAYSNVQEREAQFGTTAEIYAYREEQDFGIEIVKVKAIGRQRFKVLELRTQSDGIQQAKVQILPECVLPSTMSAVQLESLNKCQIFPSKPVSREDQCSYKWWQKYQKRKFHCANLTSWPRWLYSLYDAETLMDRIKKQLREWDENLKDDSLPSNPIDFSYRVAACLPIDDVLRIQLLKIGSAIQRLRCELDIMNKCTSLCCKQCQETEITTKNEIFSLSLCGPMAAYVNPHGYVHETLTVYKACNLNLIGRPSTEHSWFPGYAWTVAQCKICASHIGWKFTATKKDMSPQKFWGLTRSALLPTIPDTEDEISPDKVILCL
T2 sequence (P30291 whole entry): as the sequence (P30291 whole entry) above
T2 sequence (Q16531 whole entry partner): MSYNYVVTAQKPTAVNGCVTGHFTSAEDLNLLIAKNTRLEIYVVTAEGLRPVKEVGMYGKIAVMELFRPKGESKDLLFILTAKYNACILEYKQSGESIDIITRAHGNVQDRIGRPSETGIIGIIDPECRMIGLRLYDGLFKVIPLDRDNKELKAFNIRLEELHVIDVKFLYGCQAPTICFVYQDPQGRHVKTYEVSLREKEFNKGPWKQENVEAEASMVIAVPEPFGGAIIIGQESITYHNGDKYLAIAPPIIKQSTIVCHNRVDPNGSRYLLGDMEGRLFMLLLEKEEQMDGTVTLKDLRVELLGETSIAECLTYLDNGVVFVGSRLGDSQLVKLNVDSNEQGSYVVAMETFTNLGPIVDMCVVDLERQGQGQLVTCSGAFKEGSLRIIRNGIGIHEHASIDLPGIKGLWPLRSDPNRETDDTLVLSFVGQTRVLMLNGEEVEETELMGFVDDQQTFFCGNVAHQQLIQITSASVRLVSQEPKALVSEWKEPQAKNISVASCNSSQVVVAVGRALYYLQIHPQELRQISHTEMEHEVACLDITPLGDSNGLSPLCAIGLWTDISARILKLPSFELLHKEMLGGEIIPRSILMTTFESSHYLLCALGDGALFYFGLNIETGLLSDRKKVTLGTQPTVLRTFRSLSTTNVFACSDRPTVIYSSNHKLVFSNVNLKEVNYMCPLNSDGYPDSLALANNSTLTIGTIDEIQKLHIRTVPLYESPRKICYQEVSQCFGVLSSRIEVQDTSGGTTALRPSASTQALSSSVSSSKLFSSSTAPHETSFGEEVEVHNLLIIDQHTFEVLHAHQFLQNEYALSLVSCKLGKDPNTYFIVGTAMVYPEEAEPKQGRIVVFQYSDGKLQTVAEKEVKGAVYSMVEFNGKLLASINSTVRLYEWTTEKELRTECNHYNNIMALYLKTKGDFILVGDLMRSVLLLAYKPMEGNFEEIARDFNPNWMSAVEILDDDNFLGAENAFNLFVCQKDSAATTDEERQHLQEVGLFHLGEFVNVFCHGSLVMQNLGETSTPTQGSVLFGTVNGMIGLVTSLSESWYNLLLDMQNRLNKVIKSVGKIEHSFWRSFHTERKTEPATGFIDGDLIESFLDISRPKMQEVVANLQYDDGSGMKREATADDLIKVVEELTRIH
CRBN, sequence (Q96SW2 whole entry): as the sequence (Q96SW2 whole entry) above

SMILES: Cc1ccc(C(=O)Nc2ccc3occ(C4CCC(=O)NC4=O)c3c2)cc1Cl (stereo not drawn) [WX106]
- pro-degradation effect on Wee1 ([1]; HCT116 cells): weak pro-degradation effect
- pro-degradation effect on Wee1 ([1]; U87-MG cells): significant pro-degradation effect
- CRBN protein abundance after heat shock [2]: significantly increased
- complex formed by Wee1 and CRBN (HA CRBN and FLAG Wee1 overexpressed) ([3]; 10 μM WX106, 20 μM MG132, FIG. 24): significantly increased
- complex formed by Wee1 and CRBN (overexpressed CRBN and endogenous Wee1) ([3]; FIG. 26): significantly increased
- level of Wee1 expression in CRBN-deficient cells ([4]; 293T CRBN KO cells, 1 μM or 10 μM, 16 h): no significant change
- Wee1 degradation in wild-type cells ([4]; 293T cells, 1 μM or 10 μM, 16 h): promoted Wee1 degradation
- pro-degradation effect on Wee1 when MG132 was added ([4]; wild-type 293T cells, with 10 μM MG132, 16 h): absent
- pro-degradation effect on GSPT1 [5]: no significant pro-degradation effect
